Read-outs that look alike come from different tables or passages of the source.
Experiments:
[1] = Half-wave potentials by cyclic voltammetry in acetonitrile; type: physicochemical; settings: rt, Pt electrode, vs non-aqueous Ag/Ag+, given as negative of potential; for −E^I 1/2: first one-electron reduction, 0.1 M tetraethylammonium tetrafluoroborate; for −E^II 1/2: second one-electron reduction
Method: The members of the 3-acyl-2,5-bis(phenylamino)-1,4-benzoquinone series 2a–q were evaluated for their half-wave potentials (E^I 1/2 and E^II 1/2). They were measured by cyclic voltammetry in acetonitrile at room temperature, using a platinum electrode and 0.1 M tetraethylamoniumtetrafluoroborate as the supporting electrolyte. The voltammograms were run in the potential range from 0.0 to −2.0 V versus non-aqueous Ag/Ag^+.

HEK-293 kidney cells = assay: MTT cytotoxicity assay, HEK-293; type: cell-based; settings: Homo sapiens, HEK293, non-tumor cells, 48 h incubation (b12: 72 h), n = 3, read-out: IC50 ± SEM HEK-293
Method: (§1) The 3-acyl-2,5-bis(phenylamino)-1,4-benzoquinones 2a–q were evaluated for their in vitro cytotoxic activities against normal human embryonic kidney cells (HEK-293 cells) and two human cancer cell lines (T24 and DU-145 cells) in 72 h drug exposure assays. The cytotoxic activities of the new compounds were measured using conventional microculture tetrazolium reduction assays. The cytotoxic activities are expressed in terms of IC50. Doxorubicin, a clinically used anti-cancer agent, was taken as a positive control.
(§2) Human cancer cell lines T24 (bladder) and DU-145 (prostate), and non-tumor HEK-293 cells were obtained from the American Type Culture Collection (ATCC, Manassas, VA, USA). The cultures were maintained at a density of 1× 10^5 cells/mL and the medium was changed at 48- to 72-h intervals. They were cultured in high-glucose Dulbecco’s modified Eagle medium (Gibco, Grand Island, NY, USA) supplemented with 10% fetal calf serum, penicillin (100 U/mL), and streptomycin (100 μg/mL). All cultures were kept at 37 °C in 95% air/5% CO2 at 100% humidity. Phosphate-buffered saline (PBS) was purchased from Gibco. Cells were incubated at the indicated times at 37 °C, with or without quinones at various concentrations.
(§3) The cytotoxicity of the quinones was assessed by following the reduction of MTT (3-(4,5-Dimethylthiazol-2-yl)-2,5-diphenyltetrazolium bromide) to formazan blue. Cells were seeded into 96-well plates at a density of 10,000 cells/well for 24 h and then incubated for 48 h, with or without the quinone derivatives. Doxorubicin was used as the standard chemotherapeutic agent (positive control). Cells were then washed twice with warm PBS and incubated with MTT (0.5 mg/mL) for 2 hours at 37 °C. Blue formazan crystals were solubilized by adding 100 µL DMSO/well, and the optical density of the coloured solutions was subsequently read at 550 nm. Results are expressed as percentage of MTT reduction, compared to untreated control conditions. The IC50 values were calculated using the GraphPad Prism software (San Diego, CA, USA).

T24 and DU-145 cells = assay: MTT cytotoxicity assay, both cancer cell lines; type: cell-based; settings: Homo sapiens; mean of T24 and DU-145 IC50
Method: as §1, §2, §3

T24 (bladder) cells = assay: MTT cytotoxicity assay, T24; type: cell-based, human; settings: 48 h incubation (b12: 72 h), n = 3, read-out: IC50 ± SEM T24
Method: as §1, §2, §3

DU-145 (prostate) cells = assay: MTT cytotoxicity assay, DU-145; type: cell-based; settings: Homo sapiens, 48 h incubation (b12: 72 h), n = 3, read-out: IC50 ± SEM DU-145
Method: as §1, §2, §3

[2] = system: human colon adenocarcinoma; design: method as in PMID 3746824; settings: cited from earlier work

Row | Compound | −E^I 1/2 [1] [mV] | −E^II 1/2 [1] [mV] | IC50 (HEK-293 kidney cells) [µM] | IC50 (T24 and DU-145 cells) [µM] | IC50 (T24 (bladder) cells; Homo sapiens) [µM] | IC50 (DU-145 (prostate) cells) [µM] | in vitro inhibitory activity against human colon adenocarcinoma proliferation [2] | IC50 (T24 (bladder) cells) [µM]
1 | COc1cc(C(=O)C2=C(Nc3cc(OC)c(OC)c(OC)c3)C(=O)C=C(Nc3cc(OC)c(OC)c(OC)c3)C2=O)ccc1O [2k, 3-(4-Hydroxy-3-methoxybenzoyl)-2,5-bis-[(3,4,5-trimethoxyphenyl)amino]-1,4-benzoquinone] | 610 | 1010 | 28.3 ± 1.5 | > 72.9 | > 100 | 45.9 ± 3.2 |  | 
2 | COc1cc(C(=O)C2=C(Nc3ccc(F)cc3)C(=O)C=C(Nc3ccc(F)cc3)C2=O)ccc1O [2o, 3-(4-Hydroxy-3-methoxybenzoyl)-2,5-bis-[(4-fluorophenyl)amino]-1,4-benzoquinone] | 550 | 920 | > 100 | > 100 | > 100 | > 100 |  | 
3 | O=C1C=C(Nc2ccccc2)C(=O)C=C1Nc1ccccc1 [A, 2,5-bis(phenylamino)benzoquinone] |  |  |  |  |  |  | good in vitro inhibitory activity | 
4 | COc1cc(C(=O)C2=C(Nc3ccccc3)C(=O)C=C(Nc3ccccc3)C2=O)cc(OC)c1OC [2f, 3-(3,4,5-Trimethoxybenzoyl)-2,5-bis(phenylamino)-1,4-benzoquinone] | 560 | 1120 | 85.8 ± 0.9 | 36.1 | 51.8 ± 6.2 | 20.4 ± 2.1 |  | 
5 | COc1cc(NC2=CC(=O)C(Nc3cc(OC)c(OC)c(OC)c3)=C(C(=O)c3cccs3)C2=O)cc(OC)c1OC [2m, 3-(Thiophen-2-carbonyl)-2,5-bis-[(3,4,5-trimethoxyphenyl)amino]-1,4-benzoquinone] | 850 | 1010 | 30.7 ± 3.1 | 55.9 | 63.2 ± 0.6 | 48.6 ± 3 |  | 
6 | COc1ccc(C(=O)C2=C(Nc3ccccc3)C(=O)C=C(Nc3ccccc3)C2=O)cc1OC [2e, 3-(3,4-Dimethoxybenzoyl)-2,5-bis(phenylamino)-1,4-benzoquinone] | 560 | 1140 | > 100 | 52.9 | 58.2 ± 7.1 | 47.7 ± 4.2 |  | 
7 | COc1cc(NC2=CC(=O)C(Nc3cc(OC)c(OC)c(OC)c3)=C(C(=O)c3ccccc3)C2=O)cc(OC)c1OC [2i, 3-Benzoyl-2,5-bis-[(3,4,5-trimethoxyphenyl)amino]-1,4-benzoquinone] | 800 | 950 | > 100 | > 96.4 | > 100 | 92.9 ± 1.4 |  | 
8 | O=C1C=C(Nc2ccccc2)C(=O)C(C(=O)c2cccs2)=C1Nc1ccccc1 [2h, 3-(Thiophen-2-carbonyl)-2,5-bis(phenylamino)-1,4-benzoquinone] | 500 | 1030 | > 100 | 78.2 | 75.6 ± 9.1 | 80.9 ± 9.7 |  | 
9 | O=C1C=C(Nc2ccc(F)cc2)C(=O)C(C(=O)c2cccs2)=C1Nc1ccc(F)cc1 [2q, 3-(Thiophen-2-carbonyl)-2,5-bis-[(4-fluorophenyl)amino]-1,4-benzoquinone] | 730 | 980 | > 100 | > 100 | > 100 | > 100 |  | 
10 | O=C1C=C(Nc2ccccc2)C(=O)C(C(=O)c2ccco2)=C1Nc1ccccc1 [2g, 3-(Furan-2-carbonyl)-2,5-bis(phenylamino)-1,4-benzoquinone] | 570 | 870 | 61.7 ± 4.2 | 40 | 40.2 ± 4 | 39.9 ± 3.6 |  | 
11 | COc1ccc(C(=O)C2=C(Nc3ccc(F)cc3)C(=O)C=C(Nc3ccc(F)cc3)C2=O)cc1 [2ñ, 3-(4-Methoxybenzoyl)-2,5-bis-[(4-fluorophenyl)amino]-1,4-benzoquinone] | 710 | 860 | > 100 | > 100 | > 100 | > 100 |  | 
12 | COc1cc(NC2=CC(=O)C(Nc3cc(OC)c(OC)c(OC)c3)=C(C(=O)c3ccco3)C2=O)cc(OC)c1OC [2l, 3-(Furan-2-carbonyl)-2,5-bis-[(3,4,5-trimethoxyphenyl)amino]-1,4-benzoquinone] | 790 | 930 | 33 ± 4.8 | 35 | 47.1 ± 2 | 23 ± 2.3 |  | 
13 | O=C1C=C(Nc2ccc(F)cc2)C(=O)C(C(=O)c2ccccc2)=C1Nc1ccc(F)cc1 [2n, 3-Benzoyl-2,5-bis-[(4-fluorophenyl)amino]-1,4-benzoquinone] | 560 | 1040 | > 100 | > 87.2 | 74.5 ± 2.2 | > 100 |  | 
14 | COc1cccc2c1C(=O)c1c(O)c3c(c(O)c1C2=O)C[C@@](O)(C(=O)CO)C[C@@H]3O[C@H]1C[C@H](N)[C@H](O)[C@H](C)O1 [DOX, Doxorubicin, reference compound] |  |  |  | 0.69 | 0.43 | 0.93 ± 0.06 |  | 0.46 ± 0.08
15 | CCCC(=O)C1=C(Nc2ccccc2)C(=O)C=C(Nc2ccccc2)C1=O [2b, 3-Butiryl-2,5-bis(phenylamino)-1,4-benzoquinone] | 570 | 1150 | > 100 | > 96.1 | > 100 | 92.2 ± 8.7 |  | 
16 | CC(=O)C1=C(Nc2ccccc2)C(=O)C=C(Nc2ccccc2)C1=O [2a, 3-Acetyl-2,5-bis(phenylamino)-1,4-benzoquinone] | 565 | 1170 | > 100 | > 98 | > 100 | 96 ± 7.9 |  | 
17 | COc1ccc(C(=O)C2=C(Nc3cc(OC)c(OC)c(OC)c3)C(=O)C=C(Nc3cc(OC)c(OC)c(OC)c3)C2=O)cc1 [2j, 3-(4-Methoxybenzoyl)-2,5-bis-[(3,4,5-trimethoxyphenyl)amino]-1,4-benzoquinone] | 740 | 950 | 56.9 ± 5.2 | 78.8 | 85.3 ± 1.9 | 72.4 ± 2.6 |  | 
18 | O=C1C=C(Nc2ccc(F)cc2)C(=O)C(C(=O)c2ccco2)=C1Nc1ccc(F)cc1 [2p, 3-(Furan-2-carbonyl)-2,5-bis-[(4-fluorophenyl)amino]-1,4-benzoquinone] | 680 | 950 | 72.8 ± 7 | > 95 | > 100 | 90 ± 6.4 |  | 
